Activity calls are given as the source filed them.
Columns and labels:
[1] = target: T1, Alkaline phosphatase, tissue-nonspecific isozyme (Homo sapiens, UniProt P05186); assay: TNAP enzyme activators, dose response, selectivity assay for mouse IAP activator project, biochemical, TNAP isozyme, mouse IAP uHTS hits (AID 488880); format: functional
T1 sequence (P05186 whole entry): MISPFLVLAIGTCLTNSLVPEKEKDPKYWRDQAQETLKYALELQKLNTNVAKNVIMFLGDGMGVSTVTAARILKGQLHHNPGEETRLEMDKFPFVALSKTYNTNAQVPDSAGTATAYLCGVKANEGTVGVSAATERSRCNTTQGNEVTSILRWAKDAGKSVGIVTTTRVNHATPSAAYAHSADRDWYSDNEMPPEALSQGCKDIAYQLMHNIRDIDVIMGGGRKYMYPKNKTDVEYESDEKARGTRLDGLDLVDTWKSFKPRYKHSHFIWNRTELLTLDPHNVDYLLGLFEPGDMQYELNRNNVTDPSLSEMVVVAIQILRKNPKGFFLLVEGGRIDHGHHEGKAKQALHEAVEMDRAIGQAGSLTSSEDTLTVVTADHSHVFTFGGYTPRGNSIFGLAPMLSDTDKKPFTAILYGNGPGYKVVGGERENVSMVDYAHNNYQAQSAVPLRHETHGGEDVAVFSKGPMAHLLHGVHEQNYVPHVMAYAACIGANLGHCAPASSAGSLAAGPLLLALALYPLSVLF

[2] = target: Intestinal-type alkaline phosphatase (Homo sapiens, UniProt P09923); assay: activation of human intestinal alkaline phosphatase – biochemical, dose response (AID 488873); format: functional
Large T antigen = Large T antigen (Simian virus 40, UniProt P03070); format: functional, Betapolyomavirus macacae;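 further: Confirmatory-stage PubChem screen for compounds that inhibit SV40 T antigen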
Chain of Large T antigen (P03070 whole entry): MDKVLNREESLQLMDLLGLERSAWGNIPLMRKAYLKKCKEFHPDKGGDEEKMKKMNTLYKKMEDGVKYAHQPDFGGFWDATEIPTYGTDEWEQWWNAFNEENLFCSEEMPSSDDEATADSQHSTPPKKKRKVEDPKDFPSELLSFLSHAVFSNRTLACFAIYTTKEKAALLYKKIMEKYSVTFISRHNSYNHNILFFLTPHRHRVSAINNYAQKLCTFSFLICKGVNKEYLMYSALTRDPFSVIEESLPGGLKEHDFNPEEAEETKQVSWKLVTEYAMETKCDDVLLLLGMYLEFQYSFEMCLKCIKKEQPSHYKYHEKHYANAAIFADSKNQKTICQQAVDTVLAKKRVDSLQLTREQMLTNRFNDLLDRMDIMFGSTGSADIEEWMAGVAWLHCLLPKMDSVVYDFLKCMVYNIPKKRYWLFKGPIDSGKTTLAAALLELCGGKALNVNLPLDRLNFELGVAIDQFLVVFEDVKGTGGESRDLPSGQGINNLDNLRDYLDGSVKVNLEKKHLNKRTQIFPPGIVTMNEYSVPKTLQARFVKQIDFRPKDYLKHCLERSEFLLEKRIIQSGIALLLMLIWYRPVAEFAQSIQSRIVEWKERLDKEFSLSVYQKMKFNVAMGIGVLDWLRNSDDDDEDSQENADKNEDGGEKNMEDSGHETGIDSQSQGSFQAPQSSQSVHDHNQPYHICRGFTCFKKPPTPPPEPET

[3] = target: Intestinal-type alkaline phosphatase (Mus musculus, UniProt P24822); assay: mouse intestinal alkaline phosphatase activators, dose response, biochemical, luminescence, uHTS hits (AID 488783); format: functional
[4] = target: Serine/threonine-protein kinase PAK 4 (Homo sapiens, UniProt O96013); format: functional;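 further: value obtained within a kinome profiling panel in which PAK4 was one of the panel members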
[5] = target: ALK tyrosine kinase receptor (Homo sapiens, UniProt Q9UM73); format: functional;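 further: ALK tested as one member of a kinase panel screen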
[6] = target: Casein kinase I isoform alpha (Homo sapiens, UniProt P48729); format: functional
Chain of Casein kinase I isoform alpha (P48729 whole entry, canonical isoform): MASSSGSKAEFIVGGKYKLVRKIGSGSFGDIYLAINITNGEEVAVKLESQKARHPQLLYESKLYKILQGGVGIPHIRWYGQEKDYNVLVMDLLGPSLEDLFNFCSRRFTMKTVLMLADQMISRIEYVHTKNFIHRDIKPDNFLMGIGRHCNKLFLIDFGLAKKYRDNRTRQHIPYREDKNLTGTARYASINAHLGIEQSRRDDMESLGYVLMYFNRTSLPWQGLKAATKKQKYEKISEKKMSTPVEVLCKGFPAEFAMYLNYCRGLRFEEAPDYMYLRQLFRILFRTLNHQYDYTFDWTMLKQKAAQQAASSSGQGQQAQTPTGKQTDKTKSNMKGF

[7] = target: Glycogen synthase kinase-3 alpha (Homo sapiens, UniProt P49840); format: functional;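 further: GSK3A result taken from a broad kinome-wide kinase panel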
[8] = target: Death-associated protein kinase 3 (Homo sapiens, UniProt O43293); format: functional;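 further: measured as one member of a kinome-wide profiling panel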
[9] = target: Leucine-rich repeat serine/threonine-protein kinase 2 (Homo sapiens, UniProt Q5S007); format: functional;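 further: value from a broad kinome-wide panel profiling study in which LRRK2 was one of the kinases tested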
Chain of Leucine-rich repeat serine/threonine-protein kinase 2 (Q5S007 whole entry): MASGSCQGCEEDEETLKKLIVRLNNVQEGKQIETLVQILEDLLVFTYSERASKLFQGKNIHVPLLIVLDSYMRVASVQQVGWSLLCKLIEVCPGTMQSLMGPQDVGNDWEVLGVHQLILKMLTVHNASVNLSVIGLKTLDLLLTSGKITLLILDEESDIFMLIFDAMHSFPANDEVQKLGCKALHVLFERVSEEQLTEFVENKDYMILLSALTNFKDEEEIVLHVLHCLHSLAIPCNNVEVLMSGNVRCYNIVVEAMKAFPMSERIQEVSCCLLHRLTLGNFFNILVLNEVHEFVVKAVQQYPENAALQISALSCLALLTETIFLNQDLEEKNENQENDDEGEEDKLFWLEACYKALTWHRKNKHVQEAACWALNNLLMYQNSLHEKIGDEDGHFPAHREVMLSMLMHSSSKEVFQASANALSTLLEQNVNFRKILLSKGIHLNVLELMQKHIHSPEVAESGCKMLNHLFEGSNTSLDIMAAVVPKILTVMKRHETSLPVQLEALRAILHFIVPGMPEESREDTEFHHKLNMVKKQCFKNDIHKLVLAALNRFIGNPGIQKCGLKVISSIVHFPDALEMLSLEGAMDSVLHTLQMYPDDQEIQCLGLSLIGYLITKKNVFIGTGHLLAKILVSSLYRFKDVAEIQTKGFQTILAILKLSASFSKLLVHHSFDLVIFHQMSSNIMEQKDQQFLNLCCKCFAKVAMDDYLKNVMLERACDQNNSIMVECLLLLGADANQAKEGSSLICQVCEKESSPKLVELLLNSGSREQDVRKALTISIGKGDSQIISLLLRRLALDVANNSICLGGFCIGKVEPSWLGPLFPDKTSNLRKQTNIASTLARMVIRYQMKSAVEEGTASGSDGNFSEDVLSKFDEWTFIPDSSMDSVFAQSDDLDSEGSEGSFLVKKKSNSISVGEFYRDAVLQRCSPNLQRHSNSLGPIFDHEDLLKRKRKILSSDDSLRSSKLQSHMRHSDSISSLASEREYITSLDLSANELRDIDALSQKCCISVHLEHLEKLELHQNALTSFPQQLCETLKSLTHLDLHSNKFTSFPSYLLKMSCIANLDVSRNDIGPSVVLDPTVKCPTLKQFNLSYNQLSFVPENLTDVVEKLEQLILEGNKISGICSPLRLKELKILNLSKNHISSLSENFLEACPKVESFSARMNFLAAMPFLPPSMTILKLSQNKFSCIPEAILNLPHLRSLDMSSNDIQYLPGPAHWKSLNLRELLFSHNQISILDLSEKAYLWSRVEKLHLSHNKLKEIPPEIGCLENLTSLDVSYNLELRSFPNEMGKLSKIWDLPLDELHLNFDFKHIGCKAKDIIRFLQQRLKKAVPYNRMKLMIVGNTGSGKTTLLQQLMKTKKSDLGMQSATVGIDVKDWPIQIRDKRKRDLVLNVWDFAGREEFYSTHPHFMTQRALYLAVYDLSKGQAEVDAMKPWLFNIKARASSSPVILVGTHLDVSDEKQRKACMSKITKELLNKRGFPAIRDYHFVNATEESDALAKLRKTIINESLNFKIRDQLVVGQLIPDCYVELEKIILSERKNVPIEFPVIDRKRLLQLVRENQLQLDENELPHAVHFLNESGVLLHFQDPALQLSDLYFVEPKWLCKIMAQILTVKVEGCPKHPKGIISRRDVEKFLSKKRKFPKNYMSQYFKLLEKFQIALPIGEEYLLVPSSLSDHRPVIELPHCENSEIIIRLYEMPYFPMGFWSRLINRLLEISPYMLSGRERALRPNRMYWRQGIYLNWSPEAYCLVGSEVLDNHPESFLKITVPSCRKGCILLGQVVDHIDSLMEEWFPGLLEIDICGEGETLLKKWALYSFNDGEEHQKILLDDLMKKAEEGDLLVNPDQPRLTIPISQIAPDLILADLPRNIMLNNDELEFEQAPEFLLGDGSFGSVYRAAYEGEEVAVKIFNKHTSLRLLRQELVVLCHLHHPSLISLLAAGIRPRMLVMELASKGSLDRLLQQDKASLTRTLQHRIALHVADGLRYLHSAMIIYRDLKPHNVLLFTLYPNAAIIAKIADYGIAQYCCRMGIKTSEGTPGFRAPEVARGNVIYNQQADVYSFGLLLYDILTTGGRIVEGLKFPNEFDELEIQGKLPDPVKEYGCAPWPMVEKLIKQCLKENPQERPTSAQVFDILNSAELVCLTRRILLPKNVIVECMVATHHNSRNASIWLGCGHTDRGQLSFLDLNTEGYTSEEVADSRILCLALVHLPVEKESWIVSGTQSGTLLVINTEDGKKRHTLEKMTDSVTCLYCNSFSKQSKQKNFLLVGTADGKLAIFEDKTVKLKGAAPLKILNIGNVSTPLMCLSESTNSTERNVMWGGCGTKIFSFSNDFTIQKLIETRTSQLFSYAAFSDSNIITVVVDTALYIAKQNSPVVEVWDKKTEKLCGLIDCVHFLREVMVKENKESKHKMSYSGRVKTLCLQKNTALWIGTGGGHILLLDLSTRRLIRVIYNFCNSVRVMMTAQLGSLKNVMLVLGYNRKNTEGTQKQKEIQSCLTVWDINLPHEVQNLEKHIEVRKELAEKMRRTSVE

[10] = target: Tyrosine-protein kinase BTK (Homo sapiens, UniProt Q06187); format: functional
[11] = target: Tyrosine-protein kinase Lck (Homo sapiens, UniProt P06239); format: functional;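 further: lck was assayed as one member of a kinase panel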
[12] = target: Mitogen-activated protein kinase 8 (Homo sapiens, UniProt P45983); format: functional;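 further: value comes from one member of a kinome-wide kinase profiling panel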
[13] = target: Dual specificity protein kinase CLK2 (Homo sapiens, UniProt P49760); format: functional
Aurora kinase B = Aurora kinase B (Homo sapiens, UniProt Q96GD4); format: functional
[14] = target: Inhibitor of nuclear factor kappa-B kinase subunit epsilon (Homo sapiens, UniProt Q14164); assay: Navigating the Kinome. Panel member name: IKBKE; format: functional
[15] = target: Mitogen-activated protein kinase kinase kinase kinase 2 (Homo sapiens, UniProt Q12851); format: functional;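 further: measured as one member of a kinome-wide kinase panel, with MAP4K2 as the panel entry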
[16] = target: Ribosomal protein S6 kinase alpha-3 (Homo sapiens, UniProt P51812); format: functional;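 further: measured within a kinome-wide profiling panel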
[17] = target: cAMP-dependent protein kinase catalytic subunit alpha (Homo sapiens, UniProt P17612); format: functional
[18] = target: Hepatocyte growth factor receptor (Homo sapiens, UniProt P08581); format: functional;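 further: kinase panel profiling across the kinome, with MET as the panel member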
Chain of Hepatocyte growth factor receptor (P08581 whole entry): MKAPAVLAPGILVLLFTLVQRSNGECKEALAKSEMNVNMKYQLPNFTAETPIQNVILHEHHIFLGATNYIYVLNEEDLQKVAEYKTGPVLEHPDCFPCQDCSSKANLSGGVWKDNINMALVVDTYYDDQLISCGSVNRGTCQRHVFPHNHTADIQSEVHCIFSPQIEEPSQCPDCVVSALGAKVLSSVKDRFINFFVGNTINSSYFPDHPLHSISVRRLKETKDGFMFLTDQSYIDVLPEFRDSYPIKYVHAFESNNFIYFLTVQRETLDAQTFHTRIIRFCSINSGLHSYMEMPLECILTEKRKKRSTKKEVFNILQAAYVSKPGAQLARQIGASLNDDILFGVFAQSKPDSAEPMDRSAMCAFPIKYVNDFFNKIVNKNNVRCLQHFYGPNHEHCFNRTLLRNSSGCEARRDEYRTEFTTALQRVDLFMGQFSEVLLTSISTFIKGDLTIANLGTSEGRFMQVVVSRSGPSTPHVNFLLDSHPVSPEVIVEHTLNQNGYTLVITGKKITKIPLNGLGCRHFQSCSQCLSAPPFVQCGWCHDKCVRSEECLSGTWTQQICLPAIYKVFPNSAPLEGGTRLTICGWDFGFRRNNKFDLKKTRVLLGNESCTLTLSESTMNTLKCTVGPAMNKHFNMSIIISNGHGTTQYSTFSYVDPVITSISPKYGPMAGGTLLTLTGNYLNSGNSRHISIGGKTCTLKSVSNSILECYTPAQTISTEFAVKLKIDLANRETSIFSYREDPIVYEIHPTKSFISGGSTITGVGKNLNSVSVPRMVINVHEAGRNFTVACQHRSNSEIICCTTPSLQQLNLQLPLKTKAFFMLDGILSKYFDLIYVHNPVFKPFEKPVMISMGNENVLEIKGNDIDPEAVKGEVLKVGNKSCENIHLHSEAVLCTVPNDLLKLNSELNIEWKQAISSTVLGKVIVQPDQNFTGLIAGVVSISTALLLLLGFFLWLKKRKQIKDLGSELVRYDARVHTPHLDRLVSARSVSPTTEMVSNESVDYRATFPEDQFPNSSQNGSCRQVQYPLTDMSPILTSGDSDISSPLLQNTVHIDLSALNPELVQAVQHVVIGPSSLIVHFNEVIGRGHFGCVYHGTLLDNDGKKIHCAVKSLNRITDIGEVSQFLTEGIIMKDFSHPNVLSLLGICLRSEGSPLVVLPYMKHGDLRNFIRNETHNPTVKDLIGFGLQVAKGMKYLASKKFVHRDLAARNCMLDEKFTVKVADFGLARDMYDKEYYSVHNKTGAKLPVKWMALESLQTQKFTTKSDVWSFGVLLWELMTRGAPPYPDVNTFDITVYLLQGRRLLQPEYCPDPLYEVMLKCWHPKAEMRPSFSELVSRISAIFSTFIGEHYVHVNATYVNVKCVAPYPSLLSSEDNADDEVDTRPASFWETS

Genome polyprotein = Genome polyprotein (dengue virus type 2, UniProt P29990); assay: Dengue-2 NS5 methyltransferase inhibitors, primary screen, biochemical, confirmation dose response (AID 588689); format: functional
Caspase-3 = target: T2, Caspase-3 (Homo sapiens, UniProt P42574); format: functional;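 further: Dose-response selectivity test against caspase-3 for candidate inhibitors of sentrin-specific proteases (SENPs)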
T2 sequence (P42574 whole entry): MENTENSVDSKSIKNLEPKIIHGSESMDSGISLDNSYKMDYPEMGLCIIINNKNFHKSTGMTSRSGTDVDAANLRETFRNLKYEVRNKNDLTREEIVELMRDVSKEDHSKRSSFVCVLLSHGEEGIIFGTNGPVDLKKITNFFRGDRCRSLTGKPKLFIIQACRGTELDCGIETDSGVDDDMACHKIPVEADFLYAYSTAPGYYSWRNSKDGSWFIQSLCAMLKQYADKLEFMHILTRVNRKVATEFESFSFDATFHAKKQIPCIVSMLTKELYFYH

[19] = target: T3, Rac GTPase-activating protein 1 (Homo sapiens, UniProt Q9H0H5); assay: MgcRacGAP GTPase-activating activity inhibitors, confirmation, biochemical, ADP Hunter fluorescence, primary and confirmatory (AID 624330); format: functional
T3 sequence (Q9H0H5 whole entry): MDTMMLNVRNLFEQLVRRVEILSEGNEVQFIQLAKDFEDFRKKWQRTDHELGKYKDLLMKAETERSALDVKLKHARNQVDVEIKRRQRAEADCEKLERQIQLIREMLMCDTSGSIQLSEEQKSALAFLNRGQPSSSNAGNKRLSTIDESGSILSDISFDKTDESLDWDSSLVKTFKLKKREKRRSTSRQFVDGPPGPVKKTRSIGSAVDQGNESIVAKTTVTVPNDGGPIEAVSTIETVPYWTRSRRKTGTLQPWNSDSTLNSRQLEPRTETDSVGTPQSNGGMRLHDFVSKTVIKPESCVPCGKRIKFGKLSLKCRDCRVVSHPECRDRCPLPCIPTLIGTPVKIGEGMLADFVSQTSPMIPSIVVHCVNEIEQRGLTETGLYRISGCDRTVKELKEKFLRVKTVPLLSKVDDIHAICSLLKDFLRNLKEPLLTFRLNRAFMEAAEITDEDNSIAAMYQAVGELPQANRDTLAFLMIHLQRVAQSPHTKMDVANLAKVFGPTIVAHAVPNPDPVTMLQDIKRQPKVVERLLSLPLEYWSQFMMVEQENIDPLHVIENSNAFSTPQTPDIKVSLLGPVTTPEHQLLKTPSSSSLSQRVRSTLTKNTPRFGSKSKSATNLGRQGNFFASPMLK

[20] = target: DNA dC->dU-editing enzyme APOBEC-3A (Homo sapiens, UniProt P31941); assay: APOBEC3A DNA deaminase inhibitors, dose response, biochemical (AID 504722); format: functional

With O=C1C=C(O)c2c(O)cc(O)c(O)c2C1=O the EC50 [1] was > 100 µM (inactive), the EC50 [2] was > 100 µM (inactive) and the IC50 (Large T antigen) was > 100 µM (active). The EC50 [3] was 9.93 µM (active).
With Cc1ccc(-c2cc3nc(Br)cnc3[nH]2)cc1 the Ki [4] was > 5.01 µM (inactive), the Ki [5] was > 6.31 µM (inactive) and the Ki [6] was > 3.98 µM (inactive). The Ki [7] was > 3.98 µM (inactive), the Ki [8] was > 5.01 µM (inactive) and the Ki [9] was > 2.51 µM (inactive). The Ki [10] was > 6.31 µM (inactive), the Ki [11] was > 6.31 µM (inactive) and the Ki [12] was > 5.01 µM (inactive). The Ki [13] was > 3.98 µM (inactive), the Ki (Aurora kinase B) was 0.794 µM (active) and the Ki [14] was > 3.16 µM (inactive). The Ki [15] was > 2.51 µM (inactive), the Ki [16] was > 3.98 µM (inactive) and the Ki [17] was > 1.26 µM (inactive). For the same molecule, the Ki [18] was > 2.51 µM (inactive).
CC(=O)N(C1=C(Cl)C(=O)c2ccccc2C1=O)c1ccc(C(=O)O)cc1 was tested, and the IC50 (Genome polyprotein) was 5.89 µM (active), the IC50 (Caspase-3) was 14.2 µM (active) and the IC50 [19] was 165 µM (active). The IC50 [20] was > 100 µM (inactive).

Source: ChEMBL document CHEMBL1201862, “PubChem BioAssay data set” (2004)
